Results as given in ChEMBL document CHEMBL1201862, “PubChem BioAssay data set” (2004).
Active and inactive are the calls of the source.

Assays:
Steroidogenic factor 1 = Steroidogenic factor 1 (Homo sapiens, UniProt Q13285); assay: Counterscreen for inverse agonists of the liver receptor homolog-1 (LRH-1; NR5A2): Luminescence-based cell-based high throughput dose response assay to identify inverse agonists of the Steroidogenic Factor 1 Nuclear Receptor (SF1; NR5A1).; assay type: functional
[1] = target: Nuclear receptor subfamily 5 group A member 2 (Homo sapiens, UniProt O00482); assay type: functional, cell-based;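 also: HEK293T cells transfected with LRH-1 and a StAR promoter luciferase reporter; potency for inhibitors that lower LRH-1 driven reporter light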
[2] = nonselective StAR promoter luciferase inhibitors – cell-based, luminescence, luciferase reporter, counter-screen for LRH-1 inverse agonist project, dose response (AID 651969); assay type: functional
[3] = inhibition of ARNT PAS-B/TACC3 complex formation – biochemical, AlphaScreen, cherry-picked samples, confirmation (AID 651703); assay type: functional, Homo sapiens;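 also: His-tagged ARNT PAS-B domain paired with GST-TACC3 E629A dimer coactivator fragment; potency of inhibitors that break up the complex and lower AlphaScreen signal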
[4] = target: 5-hydroxytryptamine receptor 2A (Mus musculus, UniProt P35363); assay type: functional, cell-based;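 also: CHO-K1 cells with tagged receptor and beta-arrestin; agonist potency measured as compound-induced activation of the receptor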
Chain of 5-hydroxytryptamine receptor 2A (P35363 whole entry): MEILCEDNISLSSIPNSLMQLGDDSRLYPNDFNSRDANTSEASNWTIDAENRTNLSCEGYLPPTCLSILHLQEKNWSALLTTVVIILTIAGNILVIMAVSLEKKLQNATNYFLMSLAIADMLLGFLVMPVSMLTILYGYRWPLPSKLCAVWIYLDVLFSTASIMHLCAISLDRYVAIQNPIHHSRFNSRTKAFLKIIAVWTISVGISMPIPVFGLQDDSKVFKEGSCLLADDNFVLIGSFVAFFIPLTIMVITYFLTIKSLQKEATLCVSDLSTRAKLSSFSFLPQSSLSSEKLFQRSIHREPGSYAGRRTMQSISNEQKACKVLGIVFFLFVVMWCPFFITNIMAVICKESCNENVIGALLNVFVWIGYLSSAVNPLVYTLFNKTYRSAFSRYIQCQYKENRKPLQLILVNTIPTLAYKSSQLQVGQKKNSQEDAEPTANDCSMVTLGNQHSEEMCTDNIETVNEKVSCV

Mu-type opioid receptor = Mu-type opioid receptor (Homo sapiens, UniProt P35372); assay type: functional, cell-based;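 also: U2OS cells with beta-arrestin recruitment to OPRM1 by beta-gal complementation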
Chain of Mu-type opioid receptor (P35372 whole entry): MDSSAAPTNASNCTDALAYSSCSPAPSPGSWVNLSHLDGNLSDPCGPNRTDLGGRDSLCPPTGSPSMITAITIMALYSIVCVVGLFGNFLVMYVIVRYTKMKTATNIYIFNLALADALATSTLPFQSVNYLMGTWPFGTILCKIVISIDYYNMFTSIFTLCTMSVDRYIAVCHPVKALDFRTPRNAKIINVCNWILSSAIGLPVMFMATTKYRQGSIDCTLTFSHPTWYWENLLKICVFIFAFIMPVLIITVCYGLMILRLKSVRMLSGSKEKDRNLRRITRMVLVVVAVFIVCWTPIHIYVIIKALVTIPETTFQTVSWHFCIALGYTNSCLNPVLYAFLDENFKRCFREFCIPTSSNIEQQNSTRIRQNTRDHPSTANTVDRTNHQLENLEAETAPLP

[5] = rescue of ΔF508 CFTR function, airway epithelium – human bronchial epithelial cells, plate reader, cherry-pick, two tests, dose response (AID 743267); assay type: functional, cell-based
[6] = viability of PTEN-deleted HCT116 cells – cell-based, HCT116 PTEN knockout, dose response (AID 1047); assay type: functional;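 also: HCT116 colon tumor cells with PTEN knocked out; cells exposed to compound for 60 hours before readout; potency for loss of cell viability measured by luminescence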
[7] = target: G-protein coupled receptor 55 (Homo sapiens, UniProt Q9Y2T6); assay: selective activators of receptor GPR55 – imaging, U2OS cells, beta-arrestin-GFP redistribution, primary screen (AID 1961); assay type: functional
Vero = assay: cells; assay type: functional; conditions: Chlorocebus sabaeus
[8] = Fluorescence-based cell-based high throughput dose response assay for inhibitors of the interaction of nucleotide-binding oligomerization domain containing 2 (NOD2) and the receptor-interacting serine-threonine kinase 2 (RIPK2).; assay type: functional; conditions: Homo sapiens
Beta Lactamase = Beta Lactamase (Pseudomonas aeruginosa, UniProt Q932Y6); assay: BLA reporter interference, concentration series – BLA reporter cells, FRET fluorescence, artefact control for NOD2-RIPK2 interaction inhibitor project, dose response (AID 651552); assay type: functional, cell-based
Chain of Beta Lactamase (Q932Y6 whole entry): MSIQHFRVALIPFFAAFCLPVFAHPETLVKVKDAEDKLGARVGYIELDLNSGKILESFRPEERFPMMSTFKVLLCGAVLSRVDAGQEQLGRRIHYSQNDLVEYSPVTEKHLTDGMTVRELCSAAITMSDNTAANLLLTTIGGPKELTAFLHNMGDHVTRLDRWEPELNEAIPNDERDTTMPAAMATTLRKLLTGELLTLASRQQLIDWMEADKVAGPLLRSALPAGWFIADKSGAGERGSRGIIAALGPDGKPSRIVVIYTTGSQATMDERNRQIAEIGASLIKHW

[9] = viability of HCT116 lacking mutant beta-catenin – cell-based, human colon tumor, dose response (AID 1045); assay type: functional;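 also: HCT116 colon tumor cells with beta catenin knocked out; cells exposed to compound for 60 hours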
[10] = target: T1, Carboxy-terminal domain RNA polymerase II polypeptide A small phosphatase 1 (Homo sapiens, UniProt Q9GZU7); assay: CTDSP1 inhibitors, concentration-response, biochemical, absorbance readout, ultra-high-throughput screen actives (AID 540297); assay type: functional
T1 sequence (Q9GZU7 whole entry): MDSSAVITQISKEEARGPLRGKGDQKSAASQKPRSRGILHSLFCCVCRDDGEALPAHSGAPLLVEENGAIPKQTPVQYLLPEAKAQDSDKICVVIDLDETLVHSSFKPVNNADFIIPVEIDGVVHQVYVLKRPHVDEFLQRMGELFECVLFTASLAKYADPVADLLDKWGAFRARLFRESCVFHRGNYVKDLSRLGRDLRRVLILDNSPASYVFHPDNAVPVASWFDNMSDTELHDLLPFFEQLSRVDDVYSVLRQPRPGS

[11] = target: Low molecular weight phosphotyrosine protein phosphatase (Homo sapiens, UniProt P24666); assay type: functional; conditions: read-out: IC50_Mean
Beta-lactamase [12] = target: T2, Beta-lactamase (Pseudomonas aeruginosa, UniProt Q79MP6); assay: inhibition of IMP-1 beta-lactamase activity – biochemical, epi-absorbance, selectivity assay for VIM-2 inhibitor project, dose response (AID 1920)
T2 sequence (Q79MP6 whole entry): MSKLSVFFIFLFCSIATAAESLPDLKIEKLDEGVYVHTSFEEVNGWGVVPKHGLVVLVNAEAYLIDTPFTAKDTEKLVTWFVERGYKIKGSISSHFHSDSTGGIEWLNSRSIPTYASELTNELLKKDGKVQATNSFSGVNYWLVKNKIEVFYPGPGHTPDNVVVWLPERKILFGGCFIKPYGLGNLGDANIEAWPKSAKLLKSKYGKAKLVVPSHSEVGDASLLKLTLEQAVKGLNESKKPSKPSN

Beta-lactamase [13] = target: Beta-lactamase (Salmonella choleraesuis (strain SC-B67), UniProt Q5J463); assay: Epi-absorbance-based counterscreen for selective VIM-2 inhibitors: dose response biochemical high throughput screening assay to identify inhibitors of TEM-1 serine-beta-lactamase.
Beta-lactamase [14] = target: T2, Beta-lactamase; assay: […] counterscreen for selective VIM-2 inhibitors: dose response biochemical high throughput screening assay to identify inhibitors of IMP-1 metallo-beta-lactamase.
[15] = target: Mitochondrial peptide methionine sulfoxide reductase (Bos taurus, UniProt P54149); assay type: functional;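 also: absorbance read-out, biochemical high-throughput dose-response screen for MsrA inhibitors, confirmatory; recombinant bovine MsrA coupled to E. coli TrxB with NADPH and selenocystamine; potency is for inhibitors of MsrA activity on DMSO substrate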
Chain of Mitochondrial peptide methionine sulfoxide reductase (P54149 whole entry): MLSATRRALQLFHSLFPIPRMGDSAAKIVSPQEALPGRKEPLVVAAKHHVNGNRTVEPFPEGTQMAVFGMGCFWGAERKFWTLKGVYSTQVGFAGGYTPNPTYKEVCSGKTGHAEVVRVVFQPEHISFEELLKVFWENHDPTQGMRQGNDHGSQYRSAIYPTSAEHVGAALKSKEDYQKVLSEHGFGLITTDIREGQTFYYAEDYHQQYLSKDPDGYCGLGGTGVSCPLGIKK

[16] = target: T3, Small ubiquitin-related modifier 1 (Homo sapiens, UniProt P63165); assay: SUMO1 protein interaction blockers, potency – biochemical, fluorescence polarization, uHTS hits, dose response (AID 624382); assay type: functional; conditions: read-out: IC50_Mean
T3 sequence (P63165 whole entry): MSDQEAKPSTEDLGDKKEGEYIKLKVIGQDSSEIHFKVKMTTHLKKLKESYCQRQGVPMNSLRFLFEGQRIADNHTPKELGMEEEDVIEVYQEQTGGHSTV

[17] = target: DNA (cytosine-5)-methyltransferase 1 (Homo sapiens, UniProt P26358); assay: inhibition of DNA methylation by DNMT1 – biochemical, fluorescent molecular beacon, confirmation (AID 602386); assay type: functional
Chain of DNA (cytosine-5)-methyltransferase 1 (P26358 whole entry): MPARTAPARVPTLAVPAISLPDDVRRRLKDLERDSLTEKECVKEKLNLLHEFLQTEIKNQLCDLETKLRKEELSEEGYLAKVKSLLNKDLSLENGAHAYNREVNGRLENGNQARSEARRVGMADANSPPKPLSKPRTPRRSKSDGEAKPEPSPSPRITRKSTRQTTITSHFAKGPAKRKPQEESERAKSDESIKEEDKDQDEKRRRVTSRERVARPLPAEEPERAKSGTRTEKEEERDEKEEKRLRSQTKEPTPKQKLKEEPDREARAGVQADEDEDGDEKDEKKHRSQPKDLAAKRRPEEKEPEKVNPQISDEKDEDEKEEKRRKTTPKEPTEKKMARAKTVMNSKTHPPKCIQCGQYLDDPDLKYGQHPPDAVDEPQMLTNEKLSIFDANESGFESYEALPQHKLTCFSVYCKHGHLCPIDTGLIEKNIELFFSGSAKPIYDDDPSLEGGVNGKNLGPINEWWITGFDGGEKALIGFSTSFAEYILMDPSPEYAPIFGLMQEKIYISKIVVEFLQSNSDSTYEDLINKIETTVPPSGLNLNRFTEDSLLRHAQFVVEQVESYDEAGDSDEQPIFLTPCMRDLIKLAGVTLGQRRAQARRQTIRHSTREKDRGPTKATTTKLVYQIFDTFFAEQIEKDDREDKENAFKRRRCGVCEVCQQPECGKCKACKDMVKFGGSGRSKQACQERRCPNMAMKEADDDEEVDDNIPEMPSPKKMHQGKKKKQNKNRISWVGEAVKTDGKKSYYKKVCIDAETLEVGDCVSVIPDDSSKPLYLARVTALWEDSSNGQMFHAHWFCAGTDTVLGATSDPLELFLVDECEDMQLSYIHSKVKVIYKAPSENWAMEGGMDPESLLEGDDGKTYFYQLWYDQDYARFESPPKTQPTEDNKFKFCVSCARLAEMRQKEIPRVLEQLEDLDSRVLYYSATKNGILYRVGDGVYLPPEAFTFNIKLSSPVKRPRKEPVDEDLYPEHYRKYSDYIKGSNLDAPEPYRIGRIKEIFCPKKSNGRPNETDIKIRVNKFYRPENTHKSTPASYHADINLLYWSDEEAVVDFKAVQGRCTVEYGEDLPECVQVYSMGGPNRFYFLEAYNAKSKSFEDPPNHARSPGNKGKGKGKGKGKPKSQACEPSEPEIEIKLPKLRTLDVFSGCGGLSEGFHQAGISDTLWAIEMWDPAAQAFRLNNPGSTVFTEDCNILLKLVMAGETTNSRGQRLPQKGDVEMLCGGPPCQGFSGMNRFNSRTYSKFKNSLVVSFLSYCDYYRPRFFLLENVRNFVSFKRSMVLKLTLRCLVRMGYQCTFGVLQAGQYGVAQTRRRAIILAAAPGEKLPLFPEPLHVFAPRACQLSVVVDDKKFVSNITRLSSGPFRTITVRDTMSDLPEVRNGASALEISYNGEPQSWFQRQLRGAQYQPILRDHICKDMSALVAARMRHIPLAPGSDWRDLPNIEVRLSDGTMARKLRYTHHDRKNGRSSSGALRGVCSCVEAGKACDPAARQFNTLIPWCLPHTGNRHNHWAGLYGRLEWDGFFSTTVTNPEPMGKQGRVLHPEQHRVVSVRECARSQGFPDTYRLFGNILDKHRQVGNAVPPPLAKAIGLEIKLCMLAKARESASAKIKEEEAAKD

[18] = target: Dual specificity protein phosphatase 3 (Homo sapiens, UniProt P51452); assay: VHR phosphatase inhibition, dose response, selectivity assay for STEP inhibitor project, biochemical (AID 602374); assay type: functional; conditions: read-out: IC50_Mean
Albumin = Albumin (Bos taurus, UniProt P02769); assay: Counterscreen for inhibitors of T-cell receptor (TCR)-CD3 interaction: Fluorescence-based biochemical high throughput dose response assay to identify inhibitors of T-cell receptor (TCR)-CD3 interaction using a TAMRA-labeled BSA probe.; assay type: functional
Chain of Albumin (P02769 whole entry): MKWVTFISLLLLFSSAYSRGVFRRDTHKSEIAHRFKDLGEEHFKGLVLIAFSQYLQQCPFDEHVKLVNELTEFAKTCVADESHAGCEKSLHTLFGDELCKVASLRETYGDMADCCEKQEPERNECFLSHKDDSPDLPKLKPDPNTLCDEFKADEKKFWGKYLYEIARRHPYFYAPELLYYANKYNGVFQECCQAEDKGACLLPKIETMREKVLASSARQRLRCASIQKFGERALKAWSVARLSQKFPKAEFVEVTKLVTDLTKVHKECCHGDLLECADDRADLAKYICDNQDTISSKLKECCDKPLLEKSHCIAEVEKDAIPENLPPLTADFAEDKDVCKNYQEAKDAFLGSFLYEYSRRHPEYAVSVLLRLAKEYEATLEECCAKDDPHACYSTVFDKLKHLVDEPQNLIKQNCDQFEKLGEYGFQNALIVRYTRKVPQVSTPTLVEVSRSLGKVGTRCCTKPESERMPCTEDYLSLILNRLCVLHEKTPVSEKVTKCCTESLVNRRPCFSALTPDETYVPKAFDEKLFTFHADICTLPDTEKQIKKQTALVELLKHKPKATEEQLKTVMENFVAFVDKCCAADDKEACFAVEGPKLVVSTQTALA

[19] = target: Tyrosine-protein phosphatase non-receptor type 5 (Homo sapiens, UniProt P54829); assay: PTPN5 enzyme inhibition – biochemical, fluorescence intensity, uHTS hits, confirmation (AID 602372); assay type: functional; conditions: read-out: IC50_Mean
Chain of Tyrosine-protein phosphatase non-receptor type 5 (P54829 whole entry): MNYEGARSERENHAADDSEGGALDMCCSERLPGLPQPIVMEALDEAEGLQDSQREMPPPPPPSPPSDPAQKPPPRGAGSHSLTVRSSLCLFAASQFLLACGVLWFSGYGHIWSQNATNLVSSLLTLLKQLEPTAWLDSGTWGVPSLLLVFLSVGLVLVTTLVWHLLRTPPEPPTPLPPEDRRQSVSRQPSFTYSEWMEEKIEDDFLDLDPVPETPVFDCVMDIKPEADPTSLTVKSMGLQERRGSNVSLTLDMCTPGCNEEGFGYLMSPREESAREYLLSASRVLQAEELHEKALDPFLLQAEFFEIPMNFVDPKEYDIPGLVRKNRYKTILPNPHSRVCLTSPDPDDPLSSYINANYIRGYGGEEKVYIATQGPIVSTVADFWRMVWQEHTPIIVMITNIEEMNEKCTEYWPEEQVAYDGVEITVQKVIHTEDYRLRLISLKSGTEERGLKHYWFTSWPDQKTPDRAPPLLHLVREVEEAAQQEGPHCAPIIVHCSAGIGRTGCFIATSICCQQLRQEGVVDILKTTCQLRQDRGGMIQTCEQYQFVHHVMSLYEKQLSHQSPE

[20] = target: T3, Small ubiquitin-related modifier 1; assay: SUMO1 protein-protein binding blockers, potency – biochemical, FRET, dose response (AID 624383); assay type: functional; conditions: read-out: IC50_Mean
[21] = target: Tyrosine-protein phosphatase non-receptor type 11 (Homo sapiens, UniProt Q06124); assay: PTPN11 enzyme inhibitors – biochemical, selectivity assay for STEP inhibitor project, dose response (AID 602367); assay type: functional; conditions: read-out: IC50_Mean
[22] = TNFa-induced NF-kB reporter signal decrease – HEK293 LMP1 reporter cells, dry powder, set 2, selectivity assay for EBV LMP1 NF-kB inhibitor project, dose response (AID 624369); assay type: functional
[23] = activation of miR-122 Renilla sensor silencing – cell-based, Huh7 psiCHECK-miR122, Renilla luciferase, cherry-picked, dose response (AID 651956); assay type: functional;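 also: huh7 hepatoma cells stably carrying a psiCHECK-2 miR-122 sensor plasmid; renilla luciferase signal reporting endogenous miR-122 activity after 48 h compound exposure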

Chain of Steroidogenic factor 1 (Q13285 whole entry): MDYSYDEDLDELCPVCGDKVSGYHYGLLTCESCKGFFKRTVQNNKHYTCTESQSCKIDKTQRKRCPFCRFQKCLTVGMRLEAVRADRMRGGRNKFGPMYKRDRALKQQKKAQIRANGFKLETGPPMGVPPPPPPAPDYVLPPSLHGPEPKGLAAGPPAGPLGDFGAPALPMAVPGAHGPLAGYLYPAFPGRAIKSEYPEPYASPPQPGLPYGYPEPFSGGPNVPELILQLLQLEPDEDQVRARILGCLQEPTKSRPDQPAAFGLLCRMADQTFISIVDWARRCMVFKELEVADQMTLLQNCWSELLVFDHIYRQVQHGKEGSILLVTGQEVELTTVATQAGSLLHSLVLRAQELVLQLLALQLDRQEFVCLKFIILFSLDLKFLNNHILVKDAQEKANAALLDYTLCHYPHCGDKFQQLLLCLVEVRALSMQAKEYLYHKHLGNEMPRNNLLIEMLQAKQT

N=c1sccn1CC(=O)Nc1ccc(S(N)(=O)=O)cc1
IC50 (Steroidogenic factor 1): 3.81 µM (active)
IC50 [1]: 2.32 µM (active)
IC50 [2]: 35.9 µM (inactive)

Cc1cccc(NC(=O)C(C)N2CC=C(c3ccccc3)CC2)c1 (stereo not drawn)
AC50 [3]: 88.4 µM (active)

OC(COc1ccc2cc(Br)ccc2c1)CN1CCN(c2ccccn2)CC1 (stereo not drawn)
EC50 [4]: 0.903 µM (active)
EC50 (Mu-type opioid receptor): 92.5 µM (inactive)

CCOC(=O)c1[nH]c(C)c(C(=O)C2=C(O)C(=O)N(CCCN3CCOCC3)C2c2cccs2)c1C (stereo not drawn)
AC50 [5]: 19.4 µM (active)

N#Cc1ccccc1Cn1cc(/C=C/[N+](=O)[O-])c2ccccc21
EC50 [6]: 17.8 µM (active)
EC50 [7]: 3.11 µM (active)
CC50 (Vero): 8.92 µM (active)
IC50 [8]: 10.3 µM (inactive)
IC50 (Beta Lactamase): 24.4 µM (inactive)
EC50 [9]: 18 µM (active)

O=C(Nc1nc2ccsc2c(=O)s1)c1ccc(Cl)cc1
IC50 [10]: 5.43 µM (active)
IC50 [11]: 39.3 µM (inactive)

O=C(O)c1ccccc1C(=O)c1cccc2ccccc12
IC50 (Beta-lactamase [12]): > 59.6 µM (inactive)
IC50 (Beta-lactamase [13]): > 59.6 µM (inactive)
IC50 (Beta-lactamase [14]): > 59.6 µM (inactive)

O=C(C(=O)c1ccc(O)c(O)c1)c1ccc(O)c(O)c1
IC50 [15]: 112 µM (inactive)

O=C(N/N=C/c1ccoc1)c1cc(O)cc(O)c1
IC50 [16]: > 66.6 µM (inactive)
IC50 [17]: 7.09 µM (active)
IC50 [18]: 1.55 µM (active)
IC50 (Albumin): > 94 µM (inactive)
IC50 [19]: 33.9 µM (inactive)
IC50 [20]: 12.4 µM (active)
IC50 [21]: 0.952 µM (active)

CC(C)c1ccc(NC(=O)C[C@H]2CC[C@H]3[C@@H](COc4ccc(NC(=O)Nc5ccc(F)c(F)c5)cc4C(=O)N3C)O2)cc1
AbsAC35 [22]: 91.94 µM
AC50 [23]: 14.3 µM (active)
